Source: patent US20240374673A1, “PHARMACEUTICAL COMPOSITION FOR PREVENTING OR TREATING INFLAMMATORY SKIN DISEASE” (3BIGS CO., LTD., priority 2021, published 2024)
Residues, ends and D or L forms follow the SMILES beside them.

Experiment: Body weight in chronic contact dermatitis mouse model
Type: in vivo
Conditions: DNCB mice
Method: The 6-week-old male […] mouse used in the animal experiment is a species of ‘SKH-1 hairless’ and barely has body hair to ensure convenience in intuitively observing the skin condition, of which was divided, for experiment, into 3 groups out of 18 individuals in total (6 individuals for a negative control group/6 individuals for a positive control group/6 individuals for a novel peptide treated group).
After an adaptation period of about 2 weeks, 100 μL of 2,4-dinitrochlorobenzene (DNCB) prepared at a concentration of 1% in solution of acetone: olive oil (3:1) was applied onto the dorsal skin of mice at a certain time every day. After 1 week, if the incidence of contact dermatitis was observed, the DNCB was lowered to 0.5% and applied by 100 μL every 2 days, and the novel peptide was prepared in normal saline at a concentration of 1 mg/ml and applied by 100 μg daily for 3 weeks, while skin condition was observed every week during the experiment.

SMILES: C[C@@H](O)[C@H](NC(=O)[C@@H](N)CCCCN)C(=O)N[C@@H](Cc1ccccc1)C(=O)N[C@@H](CCCNC(=N)N)C(=O)O [novel peptide, KTFR] (H-KTFR-OH)
- changes in the body weight (100 μg applied daily for 3 weeks): no significant changes in the body weight
- stress induced by the peptide (concluded from body weight): no stress was induced
